From patent US6426405B2, “Neurotransmitter transporter SC6” (SmithKline Beecham P.L.C., priority 1998, dated 2002)

Biological target: T1, SC6 (GlyT-2 transporter) (Homo sapiens, UniProt Q9Y345)
T1 sequence (Q9Y345 1-797 F124S/A162G/Q184R/D463N/I735T/V751A): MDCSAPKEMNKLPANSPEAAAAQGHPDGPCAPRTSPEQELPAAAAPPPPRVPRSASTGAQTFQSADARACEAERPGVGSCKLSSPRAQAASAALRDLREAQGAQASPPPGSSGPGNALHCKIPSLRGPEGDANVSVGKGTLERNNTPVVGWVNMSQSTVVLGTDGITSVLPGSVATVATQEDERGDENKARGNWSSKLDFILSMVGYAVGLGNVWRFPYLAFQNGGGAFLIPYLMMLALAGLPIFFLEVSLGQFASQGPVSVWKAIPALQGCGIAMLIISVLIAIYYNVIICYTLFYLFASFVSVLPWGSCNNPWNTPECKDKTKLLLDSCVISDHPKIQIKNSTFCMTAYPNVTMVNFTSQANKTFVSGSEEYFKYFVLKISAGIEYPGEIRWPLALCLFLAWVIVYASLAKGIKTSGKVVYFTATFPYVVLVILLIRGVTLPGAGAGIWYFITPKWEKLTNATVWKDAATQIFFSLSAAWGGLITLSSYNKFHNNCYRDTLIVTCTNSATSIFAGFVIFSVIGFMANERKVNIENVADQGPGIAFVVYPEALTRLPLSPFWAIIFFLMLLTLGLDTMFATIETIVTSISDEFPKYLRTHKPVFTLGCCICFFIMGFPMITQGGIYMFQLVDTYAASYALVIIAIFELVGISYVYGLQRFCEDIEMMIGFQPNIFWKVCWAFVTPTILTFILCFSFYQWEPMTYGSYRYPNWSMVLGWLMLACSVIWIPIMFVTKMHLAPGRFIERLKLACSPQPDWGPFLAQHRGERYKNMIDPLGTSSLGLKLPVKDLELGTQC
Test: [3H]-glycine uptake assay in HEK-293 cells transiently transfected with SC6
Conditions: 1 mM test substance, 1 μM [3H]-glycine, alanine (5 mM) present, HEK-293 cells transfected with SC6, 37° C.

Structure (SMILES)	effect on [3H]-glycine uptake
CNCC(=O)O [sarcosine]	not significantly affected
NCC(=O)O [glycine]	almost totally blocked
